Assay [1] deals with CA1 neurones. As to the kind of experiment: Membrane potential and input resistance of CA1 neurones. The class given is cell-based, rat. The note with it: FK960 94 nM and 100 nM, n=11, average exposure 30 mins.
Assay [2] has as its system guinea-pig hippocampus. The note with it: cited from earlier work.
Assay [3] has as its system rat hippocampus. The note with it: cited from earlier work.
Assay [4] relates to CA1 neurones. As to the kind of experiment: Excitatory post-synaptic current (EPSC) in CA1 neurones voltage clamped at −70 mV. Type of assay: cell-based, rat.
In assay [5] the test system is rats. The note with it: rats in vivo; cited from earlier work.
For assay [6], the system named is cholinergic receptors. As to the kind of experiment: Displacement of radiolabelled ligands with high affinity to cholinergic receptors. The class given is binding. The note with it: a number of assays.
Assay [7] has as its system CA1 neurones in rat hippocampal slices. The experiment in a line: EPSP recording (amplitude, slope, quantal content) in CA1 neurones in rat hippocampal slices. Type of assay: cell-based. The note with it: for increase in EPSP slope: dose-response series.
Assay [8] addresses α7 nicotinic ACh receptor (Rattus norvegicus, UniProt Q05941). As to the kind of experiment: Effect of FK960 on EPSP amplitude in the presence of α7 nicotinic ACh receptor antagonists. Type of assay: cell-based.
The test system of assay [9] is CA1 neurones. As to the kind of experiment: GABAergic inhibitory post-synaptic current (IPSC) in voltage clamped CA1 neurones. Type of assay: cell-based, rat.
[10] abbreviates: one CA1 neurone (FIG. 1), 100 nM FK960.

Like-named read-outs stand apart in the source and are kept apart here.

Sequence of α7 nicotinic ACh receptor (Q05941 23-502): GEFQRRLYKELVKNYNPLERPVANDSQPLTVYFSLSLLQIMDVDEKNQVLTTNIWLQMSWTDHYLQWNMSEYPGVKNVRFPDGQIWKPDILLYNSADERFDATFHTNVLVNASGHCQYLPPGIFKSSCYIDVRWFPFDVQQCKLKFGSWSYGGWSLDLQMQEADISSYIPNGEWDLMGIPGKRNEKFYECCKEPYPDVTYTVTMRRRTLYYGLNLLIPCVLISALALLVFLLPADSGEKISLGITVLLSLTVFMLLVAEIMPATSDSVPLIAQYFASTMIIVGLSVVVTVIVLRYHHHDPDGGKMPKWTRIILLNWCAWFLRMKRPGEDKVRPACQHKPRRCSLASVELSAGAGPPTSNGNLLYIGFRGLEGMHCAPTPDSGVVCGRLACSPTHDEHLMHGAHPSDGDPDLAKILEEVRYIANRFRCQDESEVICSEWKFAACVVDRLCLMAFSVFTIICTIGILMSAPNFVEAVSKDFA

`CC(=O)N1CCN(NC(=O)c2ccc(F)cc2)CC1` [FK960, N-(4-acetyl-1-piperazinyl)-p-fluorobenzamide monohydrate]: in assay [1] (175.3 MΩ in control aCSF), the input resistance was found to be 164.2 MΩ. This molecule also returned a resting membrane potential in assay [1] (−60.3 mV in control aCSF) of −59.4 mV. Besides, the “effect on magnitude of long-term potentiation” value was “significantly increased the magnitude of long-term potentiation” in assay [2] (guinea pig hippocampus, 100 nM FK960) and “increase the magnitude of long-term potentiation” in assay [2] (guinea-pig hippocampus in vitro). In addition, the “effect on amplitude of the un-potentiated population spike” value in [3] was “increases the amplitude of the un-potentiated population spike”. The “EPSC decay time constant τEPSC” value in assay [4] (4 experiments, 20-22 mins exposure to 100 nM FK960, 22.2 ms before) was 28.4 ms. The EPSC amplitude amounted to 158.3 pA in assay [4] (4 experiments, 20-22 mins exposure to 100 nM FK960, 98.3 pA before) and 175 pA in assay [4] (one neurone (FIG. 5C), FK960, 103 pA before). In addition, the “effect on scopolamine-induced cognitive deficits” value in assay [5] is on record as “reverse scopolamine-induced cognitive deficits”. For the same molecule, in assay [6], the “displacement of radiolabelled ligands with high affinity to cholinergic receptors” value is listed as “failed to displace”. In [7] (0, 50, 100, 200 nM FK960, EPSP slope), the “dose-response relationship (shape)” value is “bell-shaped”. Moreover, the “increase in mean EPSP amplitude” value stood at 65% in assay [7] (100 nM FK960, 21 min, n=9 neurones); 123% in assay [7] (setting [10]); 11% in [8]. Moreover, the “mean EPSP amplitude” value in assay [7] (100 nM FK960, 21 min, n=9 neurones, 2.3 mV before) was 3.8 mV; in assay [7] (one CA1 neurone (FIG. 1), 100 nM FK960, n=287 EPSPs, 2.6 mV in control aCSF), 5.8 mV; in assay [7] (one CA1 neurone (FIG. 1), after 21 min in 100 nM FK960, 2.6 mV (n=50) before) it was 5.5 mV; in [8], 2.0 mV; in assay [8] (21 minutes exposure to 100 nM FK960 in 100 nM MLA, 5 CA1 neurones, unchanged), 2.6 mV. Moreover, in [7] (100 nM FK960, 21 minutes, pooled neurones), the “mean increase in 1/CV^2 (quantal content)” value amounted to 53%. In addition, the “1/CV^2 (quantal content), mean” value in assay [7] (100 nM FK960, 21 minutes, 6.4 before) was determined as 9.8. Further, in [7] (100 nM FK960, after 21 mins, n=9), the “increase in mean EPSP slope” value is 51%. Moreover, the “mean EPSP slope” value in assay [7] (100 nM FK960, after 21 mins, n=9, 357.8 mV/s before) was 540.5 mV/s. Further, the “frequency of spontaneous EPSPs” value in assay [7] (4 neurones, 20-30 min after exposure to 100 nM FK960, 0.65 before) is reported as 0.54 spontaneous EPSP/sec. In assay [7] (after 21 minutes exposure to 100 nM FK960, 7 neurones, 0.39 mV before), this molecule came in with a mean quantum size of 0.42 mV. The “increase in EPSP amplitude” value in assay [7] (after 27 mins in FK960, n=7) stood at 64%. This molecule also came in with an EPSP amplitude in [7] (after 27 mins in FK960, n=7, 2.2 mV before) of 3.6 mV. In addition, the “increase in EPSP slope” value was “smaller and not significant” in assay [7] (50 nM FK960); 55% in assay [7] (100 nM FK960, n=5, after 21 mins, control aCSF 11%); “smaller and not significant” in assay [7] (200 nM FK960). The “rise in quantal content” value in assay [7] (setting [10]) amounted to 109%. The “increase in slope of the rising phase of the averaged EPSP” value in assay [7] (one CA1 neurone (FIG. 1), 21 min 40 sec after 100 nM FK960) stood at 127%. The “slope of the rising phase of the averaged EPSP” value in assay [7] (one CA1 neurone (FIG. 1), 21 min 40 sec after 100 nM FK960, 326.7 mV/s before) stood at 742.8 mV/s. Further, in [7] (one CA1 neurone (FIG. 1), after 20 mins in 100 nM FK960, 6.4 before), the “quantal content (1/CV^2)” value was 13.4. Also, the “rise in EPSP amplitude” value in assay [8] (FK960 in 10 nM MLA, 21 minutes, n=3, from 3.1 mV) was 10%. Also, the “effect on the IPSC” value in assay [9] (100 nM FK960) is “no significant effect”. Also, the “Mean IPSC amplitude” value in assay [9] (3 experiments, FK960, 48 pA in control aCSF) is reported as 46 pA. In [9] (one CA1 neurone (FIG. 4), 21 minutes in FK960, 39 pA in control aCSF), the IPSC peak amplitude came out at 38 pA.

Regarding `O=C(c1ccc2nccnc2c1)N1CCCCC1` [FR212436, 1-(quinoxalin-6-ylcarbonyl)piperidine], the “EPSC decay time constant τEPSC” value in assay [4] (200 μM FR212436 for 20 min, n=3, 15.0 ms before) was 22.4 ms; in [4] (2 mM FR212436 for 5-10 min, n=3, 21.5 ms before), 46.7 ms. Besides, the EPSC amplitude in assay [4] (200 μM FR212436 for 20 min, n=3, 84 pA before) came to 181.3 pA; in assay [4] (2 mM FR212436 for 5-10 min, n=3, 73.7 pA before) it was 239.7 pA; in assay [4] (one neurone (FIG. 5A), FR212436 200 μM, 42 pA before) it was 95 pA; in [4] (one neurone (FIG. 5B), FR212436 2 mM, 87 pA before), 247 pA.

Take α-bungarotoxin [reference compound]: in assay [8], the “effect of antagonist on the action of FK960 on the EPSP” value was “attenuated” and the “mean EPSP amplitude” value came to 1.6 mV.

Source of the values: patent US20040092528A1, “Agent for modulating excitatory synaptic transmission comprising a compound having alpha7 nicotinic acetylcholine receptor activation property” (priority 2000, published 2004).
